The test system of one series is circulatory shock. Conditions: S. Cuzzocrea et al., Br. J. Pharmacol. 1997; cited from earlier work.
For series [1], the target named is T1, PARP enzyme present in the cells (human cell line C4I) (Homo sapiens, UniProt P09874).
T1 construct: endogenous in cells; host or cells: human cell line C4I
As to the kind of experiment: Test of PARP inhibitors in a cellular assay (H2O2-induced PAR formation, immunofluorescence). It is filed as cell-based. Conditions: 1 mM hydrogen peroxide, FITC signal standardized to DAPI. As for the experimental part: To test the action of PARP inhibitors, eukaryotic cell lines are treated with chemicals such that the DNA of the cell line is damaged and as a result the PARP enzyme present in the cells is activated. Due to the activation of the enzyme, chains of poly-ADP-ribose (PAR) are formed on proteins. These chains are bound by a specific antibody. This is in turn bound by a second antibody which is provided with a fluorescent label. The fluorescence is measured using a fluorescence scanner and behaves proportionately to the activity of the enzyme PARP. PARP inhibitors can be recognized by a weakening of the fluorescence signal. In order to prevent adulterations of the results by different cell counts, the DNA of the cells is labeled with a further dye and its fluorescence is likewise determined in the fluorescence scanner.
400,000 cells of the human cell line C4I are incubated at 37° C., 5% CO2 with 10% fetal bovine serum in RPMI medium in cell culture plates having 24 cavities until a thick cell lawn is obtained. The cells are washed with DMEM and the PARP inhibitors to be tested are added in various concentrations in DMEM. After incubation for 20 min at 37° C., a concentration of 1 mM is established using hydrogen peroxide and the mixture is incubated at 37° C. for a further 10 min. For the control, cells in some cavities are not treated with hydrogen peroxide (no PARP activation) or receive no inhibitor (maximal PARP activation). The cells are washed once with PBS and fixed at −20° C. for 10 min by addition of methanol/acetone mixture which is precooled to −20° C. (7 parts methanol, 3 parts acetone). The cells are then dried, rehydrated at room temperature for 10 min by addition of PBS, and nonspecific binding sites are blocked for 30 min at room temperature in PBS with 0.05% Tween 20 and 5% dried milk powder. […] The FITC and DAPI fluorescence is measured at several sites in the cavities with the aid of a fluorescence scanner. […] The IC50 values are calculated by semilogarithmic plotting of the standardized values of the various inhibitor concentrations.

A short description of series [2]: Determination of the water solubility. The settings on record: pH 5 to 6 adjusted with sodium acetate solution, DMSO ≦1% if not a water-soluble salt. It is filed as physicochemical. As for the experimental part:
A compound to be measured is dissolved directly in a specified volume of water and the resulting solution is adjusted to pH 5 to 6 using a sodium acetate solution so that the concentration of the active compound to be tested is achieved. If the measured substance is not present as a water-soluble salt, this was dissolved in as little dimethyl sulfoxide as possible and then diluted with water (final concentration of dimethyl sulfoxide ≦1%), after which the pH was additionally adjusted here too.

Consider five molecules from US6509365B1, “2-phenylbenzimidazoles and 2-phenylindoles, and production and use thereof” (BASF Aktiengesellschaft, priority 1998, dated 2003).

pIC50: −log10 of the molar value.

T1 sequence (P09874 whole entry): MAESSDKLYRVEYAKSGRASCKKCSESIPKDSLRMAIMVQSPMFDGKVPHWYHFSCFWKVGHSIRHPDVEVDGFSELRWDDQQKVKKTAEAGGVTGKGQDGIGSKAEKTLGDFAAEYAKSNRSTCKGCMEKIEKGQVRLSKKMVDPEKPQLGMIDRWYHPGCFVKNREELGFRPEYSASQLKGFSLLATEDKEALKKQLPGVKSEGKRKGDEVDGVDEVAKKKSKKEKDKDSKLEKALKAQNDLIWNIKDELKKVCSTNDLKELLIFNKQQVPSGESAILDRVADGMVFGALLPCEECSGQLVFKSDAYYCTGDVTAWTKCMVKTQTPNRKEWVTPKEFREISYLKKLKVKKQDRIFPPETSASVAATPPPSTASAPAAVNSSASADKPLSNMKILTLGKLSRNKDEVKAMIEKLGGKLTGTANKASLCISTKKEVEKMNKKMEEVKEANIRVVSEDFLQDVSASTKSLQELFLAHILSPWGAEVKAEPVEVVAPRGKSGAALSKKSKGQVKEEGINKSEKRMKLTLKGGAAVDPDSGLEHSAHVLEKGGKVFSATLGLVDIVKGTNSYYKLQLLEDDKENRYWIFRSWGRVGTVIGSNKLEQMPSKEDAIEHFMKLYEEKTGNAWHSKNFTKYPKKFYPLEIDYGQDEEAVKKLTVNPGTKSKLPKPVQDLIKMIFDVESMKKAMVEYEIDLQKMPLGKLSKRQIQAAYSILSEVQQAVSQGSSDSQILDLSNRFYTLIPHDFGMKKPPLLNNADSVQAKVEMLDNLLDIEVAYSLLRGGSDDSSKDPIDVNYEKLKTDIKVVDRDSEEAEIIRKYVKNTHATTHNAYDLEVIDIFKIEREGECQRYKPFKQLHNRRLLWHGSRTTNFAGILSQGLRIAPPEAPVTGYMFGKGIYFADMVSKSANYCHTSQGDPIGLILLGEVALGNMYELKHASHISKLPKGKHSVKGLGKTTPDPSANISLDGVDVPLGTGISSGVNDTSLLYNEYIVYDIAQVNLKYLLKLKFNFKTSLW

As for `NC(=O)c1cccc(N)c1` [3-aminobenzamide], the “protective effects in a model for circulatory shock” value in the series with circulatory shock was “protective effects”. For the molecule `CN(C)CCc1cc(-c2nc3c(C(N)=O)cccc3[nH]2)ccc1[N+](=O)[O-]` [Example 3], in series [1], the pIC50 was 6.93.

Take `CCN(CC)CCN(C)c1ccc(-c2nc3c(C(N)=O)cccc3[nH]2)cc1` [Example 1]: in series [1], the pIC50 was 6.94. Turning to `COc1ccc(-c2nc3cccc(C(N)=O)c3[nH]2)cc1` [NU 1076], the solubility in series [2] was below 0.01%. In the case of `CN(C)CCN(C)c1ccc(-c2nc3c(C(N)=O)cccc3[nH]2)cc1` [Example 2], the pIC50 in series [1] is 6.92.

By pIC50 is commonly meant the negative decadic logarithm of the IC50, by convention in mol/L.
